Results reported in ChEMBL document CHEMBL4011612, “4-Anilino-pyrimidine, novel aldosterone synthase (CYP11B2) inhibitors bearing pyrimidine structures” (Bioorg Med Chem Lett, 2017).
In brackets after ≈: the same amount, converted by molar mass. Activity calls are given as the source filed them. No cut-off for these calls is given here.

What was measured:
[1] = target: T1, Cytochrome P450 11B2, mitochondrial (Homo sapiens, UniProt P19099)
T1 sequence (P19099 whole entry): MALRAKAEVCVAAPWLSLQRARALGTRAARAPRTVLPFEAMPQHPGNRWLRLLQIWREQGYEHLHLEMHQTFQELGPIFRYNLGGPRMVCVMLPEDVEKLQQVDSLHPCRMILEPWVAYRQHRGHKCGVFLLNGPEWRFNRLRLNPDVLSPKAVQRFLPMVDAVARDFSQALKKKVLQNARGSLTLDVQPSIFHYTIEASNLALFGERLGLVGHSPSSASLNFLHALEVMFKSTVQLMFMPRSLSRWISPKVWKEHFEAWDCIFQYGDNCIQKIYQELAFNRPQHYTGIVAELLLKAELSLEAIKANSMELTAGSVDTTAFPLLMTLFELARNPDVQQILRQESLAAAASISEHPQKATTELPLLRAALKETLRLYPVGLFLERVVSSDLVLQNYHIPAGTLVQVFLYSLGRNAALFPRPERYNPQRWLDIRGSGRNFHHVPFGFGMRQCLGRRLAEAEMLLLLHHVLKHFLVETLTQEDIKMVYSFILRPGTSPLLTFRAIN
Description: Inhibition of human CYP11B2 expressed in HEK293A cells using deoxycorticosterone as substrate pretreated for 1 hr followed by substrate addition measured after 1 hr by HTRF assay

[2] = target: T2, Cytochrome P450 11B2, mitochondrial (Mus musculus, UniProt P15539)
T2 sequence (P15539 whole entry): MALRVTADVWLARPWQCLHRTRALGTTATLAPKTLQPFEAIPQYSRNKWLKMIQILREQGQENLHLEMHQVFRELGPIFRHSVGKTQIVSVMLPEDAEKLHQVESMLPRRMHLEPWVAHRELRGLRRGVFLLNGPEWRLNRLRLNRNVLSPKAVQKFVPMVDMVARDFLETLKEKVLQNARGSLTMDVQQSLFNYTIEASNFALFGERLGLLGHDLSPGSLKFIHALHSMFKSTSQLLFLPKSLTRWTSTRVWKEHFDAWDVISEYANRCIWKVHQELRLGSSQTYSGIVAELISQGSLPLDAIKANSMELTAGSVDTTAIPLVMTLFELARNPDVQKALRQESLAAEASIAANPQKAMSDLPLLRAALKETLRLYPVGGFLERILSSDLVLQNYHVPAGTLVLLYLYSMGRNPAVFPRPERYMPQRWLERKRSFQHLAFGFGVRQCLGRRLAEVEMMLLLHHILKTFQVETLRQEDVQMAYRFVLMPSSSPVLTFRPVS
Description: Inhibition of mouse CYP11B2 expressed in HEK293 cells using deoxycorticosterone as substrate pretreated for 1 hr followed by substrate addition after 2 hrs by HTRF assay

[3] = target: T3, Cytochrome P450 11B1, mitochondrial (Homo sapiens, UniProt P15538); assay: Inhibition of human CYP11B1 expressed in HEK293A cells; format: ADME, cell-based, HEK293
T3 sequence (P15538 whole entry): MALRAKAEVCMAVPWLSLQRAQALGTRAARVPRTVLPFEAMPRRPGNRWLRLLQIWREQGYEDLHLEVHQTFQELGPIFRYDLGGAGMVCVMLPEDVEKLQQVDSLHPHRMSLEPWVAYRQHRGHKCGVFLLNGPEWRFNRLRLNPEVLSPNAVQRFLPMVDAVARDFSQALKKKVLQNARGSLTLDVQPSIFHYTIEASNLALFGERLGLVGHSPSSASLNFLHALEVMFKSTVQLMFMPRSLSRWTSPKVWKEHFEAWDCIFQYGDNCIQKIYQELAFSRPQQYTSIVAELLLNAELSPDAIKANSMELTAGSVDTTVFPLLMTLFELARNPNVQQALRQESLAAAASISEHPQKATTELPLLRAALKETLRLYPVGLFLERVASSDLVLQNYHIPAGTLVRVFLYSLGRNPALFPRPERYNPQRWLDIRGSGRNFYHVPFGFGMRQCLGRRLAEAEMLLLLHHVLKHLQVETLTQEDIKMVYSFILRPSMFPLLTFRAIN

[4] = test system: Cynomolgus monkey; assay: Decrease in plasma aldosterone level in furosemide-induced cynomolgus monkey at 3 mg/kg, po administered as single dose by radioimmunoassay; format: functional, organism-based; conditions: Macaca fascicularis
[5] = Solubility of the compound at pH 1.2; format: physicochemical; conditions: buffer
[6] = Total AUC in cynomolgus monkey at 3 mg/kg, po administered as single dose; format: ADME, organism-based, Macaca fascicularis; design: dose 3 mg/kg, time AUCmax, route oral; conditions: in vivo
[7] = Solubility of the compound at pH 6.8; format: physicochemical; conditions: buffer
[8] = Half life in cynomolgus monkey at 3 mg/kg, po administered as single dose; format: ADME, organism-based, Macaca fascicularis; conditions: in vivo
[9] = Tmax in cynomolgus monkey at 3 mg/kg, po administered as single dose; format: ADME, organism-based, Macaca fascicularis; conditions: in vivo
[10] = test system: Liver; assay: Metabolic stability in human liver microsomes; format: ADME, microsome
[11] = target: T4, CYP1A2 (Homo sapiens, UniProt P05177); assay: Inhibition of CYP1A2 (unknown origin) at 10 uM; format: ADME
T4 sequence (P05177 whole entry): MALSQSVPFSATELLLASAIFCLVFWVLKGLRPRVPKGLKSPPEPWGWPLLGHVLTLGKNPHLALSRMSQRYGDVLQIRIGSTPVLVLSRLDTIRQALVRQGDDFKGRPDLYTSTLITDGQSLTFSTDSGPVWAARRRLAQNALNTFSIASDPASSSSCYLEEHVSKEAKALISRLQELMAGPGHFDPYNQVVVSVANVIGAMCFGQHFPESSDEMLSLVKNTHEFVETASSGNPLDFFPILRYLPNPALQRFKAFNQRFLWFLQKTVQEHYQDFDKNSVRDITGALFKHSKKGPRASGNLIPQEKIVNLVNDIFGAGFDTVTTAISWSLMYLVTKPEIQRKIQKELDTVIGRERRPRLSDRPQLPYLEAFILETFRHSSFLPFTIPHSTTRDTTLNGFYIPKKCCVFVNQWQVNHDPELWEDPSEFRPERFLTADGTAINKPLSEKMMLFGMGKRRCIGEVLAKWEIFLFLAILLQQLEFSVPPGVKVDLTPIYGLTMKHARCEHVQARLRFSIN

[12] = target: CYP2C9 (Homo sapiens, UniProt P11712); assay: Inhibition of CYP2C9 (unknown origin) at 10 uM; format: ADME
CYP2C9, sequence (P11712 whole entry): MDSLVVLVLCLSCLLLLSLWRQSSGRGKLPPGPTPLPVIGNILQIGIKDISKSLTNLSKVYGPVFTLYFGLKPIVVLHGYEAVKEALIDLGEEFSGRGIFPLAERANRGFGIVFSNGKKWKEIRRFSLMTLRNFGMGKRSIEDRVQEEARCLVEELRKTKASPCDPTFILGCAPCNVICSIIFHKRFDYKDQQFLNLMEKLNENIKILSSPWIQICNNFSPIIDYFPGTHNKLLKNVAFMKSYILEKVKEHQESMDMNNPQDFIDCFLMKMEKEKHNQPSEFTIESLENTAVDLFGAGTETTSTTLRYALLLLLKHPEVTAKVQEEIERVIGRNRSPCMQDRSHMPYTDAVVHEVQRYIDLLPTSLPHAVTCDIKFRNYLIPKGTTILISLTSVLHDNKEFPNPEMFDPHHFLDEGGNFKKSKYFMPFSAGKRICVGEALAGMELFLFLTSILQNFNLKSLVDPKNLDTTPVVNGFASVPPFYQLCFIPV

[13] = target: T5, CYP19 (aromatase) (Homo sapiens, UniProt P11511); assay: Inhibition of CYP19 (unknown origin) at 1 uM
T5 sequence (P11511 whole entry): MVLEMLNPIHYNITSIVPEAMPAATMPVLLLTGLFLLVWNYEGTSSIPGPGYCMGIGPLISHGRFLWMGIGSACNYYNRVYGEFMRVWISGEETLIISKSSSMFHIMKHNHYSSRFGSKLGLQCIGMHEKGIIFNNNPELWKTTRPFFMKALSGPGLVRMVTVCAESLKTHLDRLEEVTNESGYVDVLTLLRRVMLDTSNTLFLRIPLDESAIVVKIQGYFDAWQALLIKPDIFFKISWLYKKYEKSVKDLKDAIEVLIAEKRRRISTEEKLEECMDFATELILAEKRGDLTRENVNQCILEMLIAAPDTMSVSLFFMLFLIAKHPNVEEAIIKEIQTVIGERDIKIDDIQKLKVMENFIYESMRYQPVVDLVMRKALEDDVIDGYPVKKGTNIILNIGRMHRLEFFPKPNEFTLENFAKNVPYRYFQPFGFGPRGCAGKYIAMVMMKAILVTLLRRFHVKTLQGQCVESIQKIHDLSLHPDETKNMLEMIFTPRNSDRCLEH

[14] = target: CYP3A4 (Homo sapiens, UniProt P08684); assay: Inhibition of CYP3A4 (unknown origin) at 10 uM
CYP3A4, sequence (P08684 whole entry): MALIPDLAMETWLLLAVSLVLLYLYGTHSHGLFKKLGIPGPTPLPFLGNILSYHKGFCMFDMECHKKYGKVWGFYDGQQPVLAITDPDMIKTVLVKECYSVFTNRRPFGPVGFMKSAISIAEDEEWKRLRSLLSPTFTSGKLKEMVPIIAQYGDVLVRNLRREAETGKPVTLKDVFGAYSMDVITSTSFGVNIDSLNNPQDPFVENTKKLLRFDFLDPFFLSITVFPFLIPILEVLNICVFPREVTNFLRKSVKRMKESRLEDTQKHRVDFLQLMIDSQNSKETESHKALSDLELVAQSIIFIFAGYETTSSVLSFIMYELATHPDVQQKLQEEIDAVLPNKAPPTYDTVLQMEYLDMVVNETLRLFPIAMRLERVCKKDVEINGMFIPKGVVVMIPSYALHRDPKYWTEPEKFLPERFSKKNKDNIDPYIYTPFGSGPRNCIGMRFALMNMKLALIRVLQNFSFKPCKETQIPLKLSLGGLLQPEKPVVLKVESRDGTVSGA

[15] = target: CYP2D6 (Homo sapiens, UniProt P10635); assay: Inhibition of CYP2D6 (unknown origin) at 10 uM; format: ADME
CYP2D6, sequence (P10635 whole entry): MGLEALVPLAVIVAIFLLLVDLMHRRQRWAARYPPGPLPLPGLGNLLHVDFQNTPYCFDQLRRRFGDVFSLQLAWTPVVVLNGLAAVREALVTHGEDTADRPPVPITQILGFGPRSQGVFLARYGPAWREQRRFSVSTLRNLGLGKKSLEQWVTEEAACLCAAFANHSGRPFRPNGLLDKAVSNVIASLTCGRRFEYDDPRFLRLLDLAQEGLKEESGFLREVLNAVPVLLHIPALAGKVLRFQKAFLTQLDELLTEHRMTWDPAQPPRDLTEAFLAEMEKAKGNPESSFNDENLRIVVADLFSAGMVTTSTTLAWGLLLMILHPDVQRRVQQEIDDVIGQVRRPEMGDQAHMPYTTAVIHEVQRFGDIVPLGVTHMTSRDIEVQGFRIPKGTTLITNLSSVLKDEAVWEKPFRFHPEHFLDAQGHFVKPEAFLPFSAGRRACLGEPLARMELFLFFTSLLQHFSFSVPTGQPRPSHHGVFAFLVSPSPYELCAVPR

[16] = Plasma protein binding in mouse; format: ADME, cell-free; conditions: read-out: PPB (converted)
[17] = Cmax in cynomolgus monkey at 3 mg/kg, po administered as single dose; format: ADME, organism-based, Macaca fascicularis; design: dose 3 mg/kg, route oral; conditions: in vivo
[18] = target: T6, Cytochrome P450 11B2, mitochondrial (Rattus norvegicus, UniProt P30099); assay: Inhibition of rat CYP11B2
T6 sequence (P30099 whole entry): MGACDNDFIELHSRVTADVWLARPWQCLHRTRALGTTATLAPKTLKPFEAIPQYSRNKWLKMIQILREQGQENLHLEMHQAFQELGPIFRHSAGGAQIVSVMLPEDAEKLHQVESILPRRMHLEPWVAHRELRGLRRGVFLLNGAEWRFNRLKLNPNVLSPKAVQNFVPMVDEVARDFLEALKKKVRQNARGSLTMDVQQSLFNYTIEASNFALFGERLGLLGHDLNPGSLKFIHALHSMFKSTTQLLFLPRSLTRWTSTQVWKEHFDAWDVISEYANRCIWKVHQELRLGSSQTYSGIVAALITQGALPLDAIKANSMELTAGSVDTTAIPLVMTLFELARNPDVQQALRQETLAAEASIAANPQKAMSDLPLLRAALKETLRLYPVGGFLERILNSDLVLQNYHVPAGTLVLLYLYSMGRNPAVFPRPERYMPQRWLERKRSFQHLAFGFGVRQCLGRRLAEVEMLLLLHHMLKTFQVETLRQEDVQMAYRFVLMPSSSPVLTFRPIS

[19] = Inhibition of monkey CYP11B2; design: species or system Macaca mulatta

SMILES	IC50 [1]	IC50 [2]	IC50 [3]	other results
COc1ccc(Nc2ncncc2C(O)C2CCN(S(C)(=O)=O)CC2)cc1 (racemic)	0.014 µM	> 10 µM		
CCCC(O)c1cncnc1Nc1ccc(F)cc1 (racemic)	0.075 µM	0.911 µM	0.181 µM	
CS(=O)(=O)N1CCC(C(O)c2cncnc2Nc2ccc(F)cc2)C1 (mixture of isomers)	0.144 µM	1.47 µM		
CS(=O)(=O)N1CCC(C(O)c2cncnc2Sc2ccc(F)cc2)CC1 (racemic)	0.0004 µM	0.257 µM	0.0006 µM	
CS(=O)(=O)N1CCC(C(O)c2cncnc2Cc2ccccc2)CC1 (racemic)	0.083 µM			
OC(c1ccccc1)c1cncnc1Nc1ccc(F)cc1 (racemic)	0.03 µM	0.44 µM	0.093 µM	
CS(=O)(=O)N1CCC(C(=O)c2cncnc2Nc2ccc(F)cc2)CC1	0.109 µM	5.1 µM		
CS(=O)(=O)N1CCC(C(O)(c2cncnc2Nc2ccc(F)cc2)C(F)(F)F)CC1 (racemic) [listing 1 of 2 here]				Activity [4]: Active
CS(=O)(=O)N1CCC(C(O)(c2cncnc2Nc2ccc(F)cc2)C(F)(F)F)CC1 (single isomer, unassigned; isomer 1)	0.00073 µM	0.00073 µM	0.0011 µM	
CCCCC(O)(c1cncnc1Nc1ccc(F)cc1)C1CCN(S(C)(=O)=O)CC1 (racemic)	0.048 µM	0.17 µM	0.124 µM	
OC(c1cncnc1Nc1ccc(F)cc1)C1CCNCC1 (racemic)	0.3 µM	1.31 µM		
CC(C)C(O)(c1cncnc1Nc1ccc(F)cc1)C1CCN(S(C)(=O)=O)CC1 (racemic)	0.005 µM	0.021 µM	0.013 µM	
CS(=O)(=O)N1CCC(C(O)(c2cncnc2Nc2ccc(F)cc2)C(F)(F)F)CC1 (racemic) [listing 2 of 2 here]	0.004 µM	0.01 µM	0.002 µM	solubility [5]: 0.86 mg/mL (≈ 1920 µM); AUC [6]: 3.3 µg·h/mL; solubility [7]: 0.26 mg/mL (≈ 580 µM); half-life [8]: 2.31 h; Tmax [9]: 2.67 h; Stability [10]: 100%; inhibition at 10 µM [11]: < 0%; inhibition at 10 µM [12]: 3.4%; inhibition at 1 µM [13]: 16%; inhibition at 10 µM [14]: 4.1%; inhibition at 10 µM [15]: 5.8%; fraction unbound [16]: 0.185; Cmax [17]: 0.515 µg/mL
CS(=O)(=O)N1CCC(C(O)c2cncnc2Nc2cccc(F)c2)CC1 (racemic)	0.005 µM	1.1 µM	0.013 µM	
CS(=O)(=O)N1CCC(C(O)c2cncnc2Nc2ccccc2)CC1 (racemic)	0.015 µM	1.76 µM	0.042 µM	
CS(=O)(=O)N1CCC(O)(c2cncnc2Nc2ccc(F)cc2)CC1	0.3 µM	1.38 µM		
CS(=O)(=O)N1CCC(C(O)c2cncnc2Nc2ccc(F)cc2)CC1 (racemic)	0.003 to 0.0031 µM	0.3 to 0.301 µM	0.01 µM	IC50 [18]: 0.3 µM; IC50 [19]: 0.0027 µM
CC(O)(c1cncnc1Nc1ccc(F)cc1)C1CCN(S(C)(=O)=O)CC1 (racemic)	0.002 µM	0.102 µM	0.006 µM	
CS(=O)(=O)N1CCC(CC(O)c2cncnc2Nc2ccc(F)cc2)CC1 (racemic)	0.192 µM	3.13 µM		
CS(=O)(=O)N1CCC(C(O)c2cncnc2Nc2cccc3ccccc23)CC1 (racemic)	0.008 µM	2.74 µM	0.11 µM	
Cc1ccc(Nc2ncncc2C(O)C2CCN(S(C)(=O)=O)CC2)cc1 (racemic)	0.008 µM	1.89 µM	0.019 µM	
CS(=O)(=O)N1CCC(C(O)(c2cncnc2Nc2ccc(F)cc2)C(F)(F)F)CC1 (single isomer, unassigned; isomer 2)	> 0.1 µM	> 0.1 µM	> 0.3 µM	
CS(=O)(=O)N1CCC(C(O)c2cncnc2Nc2ccc(C(F)(F)F)cc2)CC1 (racemic)	0.003 µM	0.798 µM	0.016 µM	
CS(=O)(=O)N1CCC(C(O)c2cncnc2Nc2ccc(C#N)cc2)CC1 (racemic)	0.002 µM	1.34 µM	0.011 µM	
